Data on one compound can be found in patent US20260174766A1, “COMBINATION OF MENIN INHIBITOR(S) AND IMMUNOPROTEASOME INHIBITOR(S) FOR TREATMENT OF LEUKEMIA” (Medizinische Hochschule Hannover, priority 2022, published 2026).

Assay [1] relates to human MLL-rearranged AML cell lines. The experiment in a line: Cell cycle analysis (EdU, % cells in S phase). The class given is cell-based. Particulars: 100 nM PR-957, 24 hours; MOLM-13, MV-4;11, ML-2, KOPN-8; FIG. 1I. The protocol: Immunophenotyping of immature and mature cell compartments and of leukemic cells was performed as described before (Heidel et al., 2013; Heidel et al., 2012). The antibodies used for cell surface staining are provided in Table 1 at the end of section 2 (“Key Resource Table”). Cells were stained in PBS/1% FBS for 1.5 hours at 4° C. SYTOX® Blue Dead Cell Stain (Life Technologies, Darmstadt, Germany) was used to exclude dead cells. Flow cytometry was performed on a LSR-Fortessa or FACS Canto II cytometer (Becton Dickinson, Heidelberg, Germany). Cell cycle analysis was performed using the Click-iT™ Plus EdU Alexa Fluor™ 647 Assay Kit (Thermo Scientific, Waltham, MA, USA) as per the manufacturer's instructions.
Samples were labeled for FACs based analysis of cell cycle using the Click-iTR EdU assay. n=3 independent experiments; paired t test.

Assay [2] concerns MLL-AF9 driven leukemia. The experiment in a line: MLL-AF9 driven murine leukemia, in vivo PR-957 treatment of primary recipients. Set-up: species or system mouse. The procedure:
For induction of MLL-AF9 (MA9) driven leukemia we used established retroviral MSCV-GFP-based vectors to express MA9 in hematopoietic stem- and progenitor cells (Lineage-negative, Sca1-positive, Kit-positive [LSK] cells). In detail, bone marrow (BM) of LMP7+/+ or LMP7−/− littermates was isolated following standard procedures from 6-12-weeks-old mice. Lineage-depletion was performed using Streptavidin Particles Plus-DM (BD Biosciences, Heidelberg, Germany) and a DynaMag magnet (Thermo Fisher Scientific). Lineage-depleted cells were stained with streptavidin BV421, KIT AF647 and Sca-1 FITC or PE antibodies (all antibodies were received from Biolegend, San Diego, CA, USA) and then used for cell sorting. Sorted LSK cells were pre-stimulated on RetroNectin-coated plates (Takara Bio USA, Inc., Mountain View, CA, USA) in serum-free medium (StemSpan™ SFEM, StemCell Technologies, Vancouver, Canada) supplemented with SCF, TPO, IL-3 and IL-6 (all cytokines from PeproTech, Hamburg, Germany) overnight. 20 hours after stimulation, LSK cells were infected twice (8 hours gap) by spinfection (872 g, 1.5 hours, 33° C.) with retroviral particles containing the oncogenic vectors. Cells were analyzed 48 hours after first infection for GFP-expression using flow cytometry and 7.5×10^4 GFP+ cells were injected into sublethally irradiated (7 Gy, single dose) primary recipient mice (C57BL/6J; females). For serial transplantation of leukemia, 3×10^5 whole bone marrow cells of diseased animals were transplanted into secondary C57BL/6J recipient mice (sublethal irradiation, 7 Gy, single dose). […]
To characterize the effects of LMP7/PSMB8 inhibition in more detail, differentiation following PR-957 treatment was assessed. […]

Assay [3] concerns MLL-AF9 driven leukemia. The experiment in a line: Secondary transplantation of bone marrow from in vivo treated MLL-AF9 mice. Set-up: species or system mouse. Particulars: p<0.0001. The protocol:
For induction of MLL-AF9 (MA9) driven leukemia we used established retroviral MSCV-GFP-based vectors to express MA9 in hematopoietic stem- and progenitor cells (Lineage-negative, Sca1-positive, Kit-positive [LSK] cells). In detail, bone marrow (BM) of LMP7+/+ or LMP7−/− littermates was isolated following standard procedures from 6-12-weeks-old mice. Lineage-depletion was performed using Streptavidin Particles Plus-DM (BD Biosciences, Heidelberg, Germany) and a DynaMag magnet (Thermo Fisher Scientific). Lineage-depleted cells were stained with streptavidin BV421, KIT AF647 and Sca-1 FITC or PE antibodies (all antibodies were received from Biolegend, San Diego, CA, USA) and then used for cell sorting. […] Cells were analyzed 48 hours after first infection for GFP-expression using flow cytometry and 7.5×10^4 GFP+ cells were injected into sublethally irradiated (7 Gy, single dose) primary recipient mice (C57BL/6J; females). […]
To characterize the effects of LMP7/PSMB8 inhibition in more detail, differentiation following PR-957 treatment was assessed. […] Next, the frequency of L-GMP (Lin− c-kit+ Sca1− CD34+ FcgR+) was assessed by flow cytometry, which have been described as the functionally relevant LSC population in MLL-AF9 driven leukemia. […]

Assay [4] relates to Menin-inhibitor resistant cell lines (MV-4;11 M327I, T349M). Nature of the assay: Relative growth of Menin-inhibitor resistant MV-4;11 cell lines. It counts as cell-based, human. The note with it: resistance mutations M327I and T349M; 50 nM or 100 nM PR-957; FIG. 4L. The procedure: MOLM-13, MONO-MAC-6, THP-1, KOPN-8, ML-2, MV-4;11, OCI-AML3, U-937, KASUMI-1, K-562, HL-60 and LAMA-84 cells were purchased from DSMZ (Braunschweig, Germany). Cas9-Blast cell lines are subclones of the respective cell lines and stably transduced with lentiCas9-Blast (Addgene plasmid #52962). Cells were cultured in RPMI 1640 medium (Thermo Fisher Scientific, Waltham, MA, USA) supplemented with 10-20% FBS (Thermo Fisher Scientific) in a humid atmosphere of 5% CO2 at 37° C. MV4;11 cells harboring Menin-inhibitor resistance mediating mutations of Menin were generated by CRISPR-Cas9 technology.

Each structure is given as a SMILES string.

Turning to `COc1ccc(C[C@H](NC(=O)[C@H](C)NC(=O)CN2CCOCC2)C(=O)N[C@@H](Cc2ccccc2)C(=O)[C@]2(C)CO2)cc1` [PR-957, (2S)-3-(4-methoxyphenyl)-N-[(2S)-1-[(2S)-2-methyloxiran-2-yl]-1-oxo-3-phenylpropan-2-yl]-2-[[(2S)-2-[(2-morpholin-4-ylacetyl)amino]propanoyl]amino]propanamide], the “cell cycle activity (% of cells in S phase)” value in assay [1] is “reduced cell cycle activity”. Besides, in assay [2] (6 mg/kg i.v. QD 3 weeks (5 days per week), 3 days after discontinuation, vs diluent, FIG. 2B,C), the “leukemic cells in the peripheral blood and spleen size” value is “reduced compared to diluent treated controls”. For the same compound, in assay [2] (6 mg/kg i.v. QD 3 weeks (5 days per week), control 69.8%, FIG. 2D), the “abundance of leukemic cells in the bone marrow” value is given as 42.9%. Also, the “frequency of L-GMP populations” value in assay [2] (6 mg/kg i.v. QD 3 weeks, diluent control 3.57+/-0.52%, p=0.0087, FIG. 2E) is 2.25+/−0.8%. In addition, in assay [3] (recipients of PR-957 treated cells, control 21 days, FIG. 2G), the “median survival of secondary recipients” value is listed as 39.5 days. Further, the “leukemic cells in the peripheral blood (GFP+ WBC) of secondary recipients” value in assay [3] (two weeks after transplantation of bone marrow of treated mice, FIG. 2F) was found to be 1.6 Gpt/L. Further, the “sensitivity of Menin-inhibitor resistant cell lines to immunoproteasome inhibition” value in assay [4] is “preserved sensitivity”.
